# DBAASP
# Legend:
# Experiment in all cases: ≥ marks a high value that may be exact or a test limit, other limits are often not marked, values filed in µg/mL are converted to µM
# [1] = test system: Staphylococcus aureus ATCC 25923
# [2] = test system: Staphylococcus aureus ATCC BAA-1683
# Escherichia coli = test system: Escherichia coli
# [3] = test system: Streptococcus pneumoniae ATCC 700677
# [4] = test system: Staphylococcus aureus ATCC 43300
# [5] = test system: Staphylococcus aureus VRSA1
# [6] = test system: Staphylococcus aureus VRSA10
# [7] = test system: Pseudomonas aeruginosa FADDI-PA070
# [8] = test system: Staphylococcus aureus NRS 17
# [9] = test system: Staphylococcus aureus NRS 1
# [10] = test system: Escherichia coli ATCC 25922
# [11] = test system: Klebsiella pneumoniae ATCC 700603
# [12] = test system: Acinetobacter baumannii ATCC 19606
# [13] = test system: Klebsiella pneumoniae ATCC BAA-2146
# [14] = test system: Pseudomonas aeruginosa ATCC 27853
# Escherichia coli TOP 10 = test system: Escherichia coli TOP 10
# Escherichia coli K88 = test system: Escherichia coli K88
# [15] = test system: Salmonella enterica subsp. enterica serovar Pullorum C79-13
# [16] = test system: Staphylococcus aureus ATCC 29213
# [17] = test system: Salmonella enterica subsp. enterica serovar Typhimurium C77-31
# [18] = test system: Lacticaseibacillus rhamnosus 1.0911
# [19] = test system: Lacticaseibacillus rhamnosus 7469
# [20] = test system: Lacticaseibacillus rhamnosus 1.0385
# [21] = test system: Salmonella enterica subsp. enterica serovar Typhimurium ATCC 14028
# Escherichia coli UB1005 = test system: Escherichia coli UB1005
# [22] = test system: Lacticaseibacillus rhamnosus 1.0936
# [23] = test system: Lactiplantibacillus plantarum 8014
# Escherichia coli K99 = test system: Escherichia coli K99
# [24] = test system: Salmonella enterica subsp. enterica serovar Typhimurium ATCC 14028s
# [25] = test system: Pseudomonas aeruginosa K799
# Vibrio anguillarum = test system: Vibrio anguillarum
# Aeromonas salmonicida = test system: Aeromonas salmonicida
# [26] = test system: Staphylococcus epidermidis C621
# [27] = test system: Salmonella enterica serovar typhimurium MS7953s
# [28] = test system: Pseudomonas aeruginosa Z61
# [29] = test system: Staphylococcus epidermidis ATCC 12228
# [30] = test system: Enterococcus faecium ATCC 19434
# Bacillus megaterium Bm11 = test system: Bacillus megaterium Bm11
# [31] = test system: Staphylococcus aureus ATCC BAA-2312
# [32] = test system: Enterococcus faecalis ATCC 51299
# [33] = test system: Candida parapsilosis ATCC 22019
# [34] = test system: Klebsiella pneumoniae ATCC 49472
# [35] = test system: Staphylococcus aureus ATCC 12600
# [36] = test system: Escherichia coli ATCC 35218
# [37] = test system: Klebsiella pneumoniae ATCC BAA-2814
smiles,measurement,setting,value
CC(C)C[C@H](NC(=O)[C@H](CC(C)C)NC(=O)[C@H](CCCN=C(N)N)NC(=O)[C@H](Cc1c[nH]c2ccccc12)NC(=O)[C@H](Cc1c[nH]c2ccccc12)NC(=O)[C@@H](N)CCCCN)C(=O)N[C@@H](Cc1cnc[nH]1)C(=O)N[C@@H](CCCCN)C(=O)N[C@@H](CCCCN)C(=O)N[C@@H](CCC(N)=O)C(N)=O [KWWRLLHKKQ],MIC,[1],351 µM
same,MIC,[2],≥ 351 µM
same,MIC,Escherichia coli,351 µM
CC[C@H](C)[C@H](N)C(=O)N[C@@H](CC(=O)O)C(=O)N[C@@H](Cc1c[nH]c2ccccc12)C(=O)N[C@@H](CCCCN)C(=O)N[C@@H](CCCCN)C(=O)N[C@H](C(=O)N[C@@H](CC(=O)O)C(=O)N[C@@H](Cc1c[nH]c2ccccc12)C(=O)N[C@@H](CCCCN)C(=O)N[C@@H](CCCCN)C(=O)N[C@H](C(=O)N[C@@H](CO)C(=O)N[C@@H](CCCCN)C(=O)N[C@@H](CCCCN)C(=O)N[C@H](C(=O)N[C@@H](CO)C(=O)N[C@@H](CCCCN)C(=O)N[C@H](C(=O)N[C@@H](CCSC)C(=O)N[C@@H](CC(C)C)C(=O)N[C@@H](CCCCN)C(=O)N[C@@H](C)C(=O)N[C@@H](CO)C(=O)N[C@@H](CCCCN)C(=O)N[C@@H](Cc1ccccc1)C(=O)N[C@@H](CC(C)C)C(N)=O)C(C)C)[C@@H](C)O)C(C)C)C(C)C [IDWKKVDWKKVSKKTSKVMLKASKFL],MIC,[3],12.8 µM
same,MIC,[4],> 12.8 µM
same,MIC,[5],12.8 µM
same,MIC,[6],12.8 µM
same,MIC,[7],12.8 µM
same,MIC,[8],12.8 µM
same,MIC,[9],12.8 µM
same,MIC,[10],4.53 µM
same,MIC,[11],9.05 µM
same,MIC,[12],0.566 µM
same,MIC,[13],2.26 µM
same,MIC,[14],> 12.8 µM
CC[C@H](C)[C@H](NC(=O)[C@H](CCC(=O)O)NC(=O)[C@H](CCCCN)NC(=O)[C@H](CCC(=O)O)NC(=O)[C@@H](NC(=O)[C@H](CO)NC(=O)[C@H](CCC(N)=O)NC(=O)[C@@H](NC(=O)[C@@H]1CCCN1C(=O)[C@H](CC(=O)O)NC(=O)[C@H](C)NC(=O)[C@H](CCSC)NC(=O)[C@@H](NC(=O)[C@H](Cc1ccccc1)NC(=O)[C@@H](N)CC(C)C)[C@@H](C)O)[C@@H](C)CC)[C@@H](C)CC)C(N)=O [LFTMADPIQSIEKEI],MIC,Escherichia coli TOP 10,≥ 57.6 µM
C[C@@H]1NC(=O)[C@@H](N)CSSC[C@@H](C(=O)O)NC(=O)[C@H](Cc2ccccc2)NC(=O)[C@H](Cc2ccc(O)cc2)NC(=O)[C@H](CO)NC1=O [CASYFC],MIC,Escherichia coli K88,≥ 64 µM
same,MIC,[15],≥ 64 µM
same,MIC,[4],> 64 µM
same,MIC,[16],> 64 µM
same,MIC,[17],≥ 64 µM
same,MIC,[18],≥ 64 µM
same,MIC,[19],≥ 64 µM
same,MIC,[1],> 64 µM
same,MIC,[20],≥ 64 µM
same,MIC,[21],> 64 µM
same,MIC,Escherichia coli UB1005,≥ 64 µM
same,MIC,[10],> 64 µM
same,MIC,[22],≥ 64 µM
same,MIC,[23],≥ 64 µM
same,MIC,Escherichia coli K99,≥ 64 µM
same,MIC,[14],> 64 µM
CC[C@H](C)[C@H](NC(=O)[C@@H](N)CO)C(=O)NCC(=O)N[C@@H](CO)C(=O)N[C@@H](C)C(=O)N[C@@H](Cc1ccccc1)C(=O)N[C@@H](CCCCN)C(=O)N[C@@H](CCCCN)C(=O)N[C@@H](C)C(=O)N[C@@H](C)C(=O)N[C@@H](Cc1cnc[nH]1)C(=O)N[C@H](C(=O)NCC(=O)N[C@@H](CCCCN)C(=O)N[C@@H](Cc1cnc[nH]1)C(=O)N[C@H](C(=O)NCC(=O)N[C@@H](CCCCN)C(=O)N[C@@H](C)C(=O)N[C@@H](C)C(=O)N[C@@H](CC(C)C)C(=O)NCC(=O)N[C@@H](C)C(=O)N[C@@H](C)C(=O)N[C@@H](C)C(=O)N[C@@H](CCCN=C(N)N)C(=O)N[C@@H](CCCN=C(N)N)C(=O)N[C@@H](CCCN=C(N)N)C(=O)N[C@@H](CCCCN)C(=O)O)C(C)C)C(C)C [SIGSAFKKAAHVGKHVGKAALGAAARRRK],MIC,[24],21.7 µM
same,MIC,[25],21.7 µM
same,MIC,Vibrio anguillarum,21.7 µM
same,MIC,Aeromonas salmonicida,10.9 µM
same,MIC,[26],21.7 µM
same,MIC,[27],2.72 µM
same,MIC,[28],21.7 µM
CC[C@H](C)[C@H](NC(=O)CN)C(=O)N[C@@H](Cc1ccccc1)C(=O)N[C@@H](CC(=O)O)C(=O)N[C@H](C(=O)N[C@@H](CC(C)C)C(=O)N[C@@H](CCCCN)C(=O)N[C@@H](CC(N)=O)C(=O)N[C@@H](CC(C)C)C(=O)N[C@@H](C)C(=O)N[C@@H](CCCCN)C(=O)NCC(=O)N[C@H](C(=O)N[C@H](C(=O)N[C@H](C(=O)N[C@@H](CO)C(=O)N[C@@H](CC(C)C)C(=O)N[C@@H](C)C(=O)N[C@@H](CO)C(N)=O)[C@@H](C)O)[C@@H](C)CC)C(C)C)C(C)C [GIFDVLKNLAKGVITSLAS],MIC,[29],6.25 µM
same,MIC,[30],≥ 62.5 µM
same,MIC,Bacillus megaterium Bm11,0.78 µM
same,MIC,[1],12.5 µM
same,MIC,[31],31.2 µM
same,MIC,[21],62.5 µM
same,MIC,[32],≥ 250 µM
same,MIC,[33],25 µM
same,MIC,[10],6.25 µM
same,MIC,[34],≥ 62.5 µM
same,MIC,[35],31.2 µM
same,MIC,[36],31.2 µM
same,MIC,[12],6.25 µM
same,MIC,[37],≥ 62.5 µM
same,MIC,[14],62.5 µM
